Test results from the supplement of paper PMC10307832.

Columns and labels:
Test in all cases: relative viability (nuclei count vs DMSO), 5 days (fraction); higher = more cells survive
HCC-366 = test system: HCC-366
Procedure, shortened: (§1)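 A single step with final 0.05% Triton X-100, 1% formaldehyde and 1 ug/ml Hoechst fixed the cells and stained nuclei 5 days after treatment. Lung cancer cell lines in 1536-well plates had been treated by pin tool the day after seeding with one drug alone or a fixed anchor-drug dose plus five library-drug doses (not always all listed) in √10 steps, and nuclei were counted on 4× images. Relative viability is the ratio of nuclei in treated wells to nuclei in vehicle wells, taken as the median of duplicate plates.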

NCI-H23 = test system: NCI-H23
Procedure, shortened: as §1

NCI-H2228 = test system: NCI-H2228
Procedure, shortened: as §1

NCI-H1944 = test system: NCI-H1944
Procedure, shortened: as §1

NCI-H1993 = test system: NCI-H1993
Procedure, shortened: as §1

NCI-H1793 = test system: NCI-H1793
Procedure, shortened: as §1

EMC-BAC-2 = test system: EMC-BAC-2
Procedure, shortened: as §1

NCI-H1734 = test system: NCI-H1734
Procedure, shortened: as §1

NCI-H2009 = test system: NCI-H2009
Procedure, shortened: as §1

HCC-78 = test system: HCC-78
Procedure, shortened: as §1

NCI-H2126 = test system: NCI-H2126
Procedure, shortened: as §1

NCI-H2405 = test system: NCI-H2405
Procedure, shortened: as §1

SK-LU-1 = test system: SK-LU-1
Procedure, shortened: as §1

ABC-1 = test system: ABC-1
Procedure, shortened: as §1

COR-L23 = test system: COR-L23
Procedure, shortened: as §1

UMC-11 = test system: UMC-11
Procedure, shortened: as §1

NCI-H2023 = test system: NCI-H2023
Procedure, shortened: as §1

NCI-H838 = test system: NCI-H838
Procedure, shortened: as §1

LC-2-ad = test system: LC-2-ad
Procedure, shortened: as §1

HCC-15 = test system: HCC-15
Procedure, shortened: as §1

HARA = test system: HARA
Procedure, shortened: as §1

A-427 = test system: A-427
Procedure, shortened: as §1

Work on `O=C(O)c1ccc(-c2c[nH]c3ncc(-c4ccccc4)cc23)cc1C1CCCC1` + Cc1nc(NC(=O)N2CCC[C@H]2C(N)=O)sc1-c1ccnc(C(C)(C)C(F)(F)F)c1 [Alpelisib] (partner 2 µM) yielded a relative viability (HCC-366; first compound 0.04 µM) of 0.443, a relative viability (HCC-366; first compound 0.1265 µM) of 0.721 and a relative viability (HCC-366; first compound 0.4 µM) of 0.653. The relative viability (HCC-366; first compound 1.265 µM) was 0.32, the relative viability (NCI-H23; first compound 0.04 µM) was 0.61 and the relative viability (NCI-H23; first compound 0.1265 µM) was 0.852. The relative viability (NCI-H23; first compound 0.4 µM) was 0.672, the relative viability (NCI-H23; first compound 1.265 µM) was 0.423 and the relative viability (NCI-H2228; first compound 0.04 µM) was 0.755. It also gave a relative viability (NCI-H2228; first compound 0.1265 µM) of 0.787, a relative viability (NCI-H2228; first compound 0.4 µM) of 0.552 and a relative viability (NCI-H2228; first compound 1.265 µM) of 0.468. The relative viability (NCI-H1944; first compound 0.04 µM) was 0.871, the relative viability (NCI-H1944; first compound 0.1265 µM) was 0.94 and the relative viability (NCI-H1944; first compound 0.4 µM) was 0.833. It also gave a relative viability (NCI-H1944; first compound 1.265 µM) of 0.745, a relative viability (NCI-H1993; first compound 0.04 µM) of 0.656 and a relative viability (NCI-H1993; first compound 0.4 µM) of 0.68. For the same compound, the relative viability (NCI-H1993; first compound 1.265 µM) was 0.594, the relative viability (NCI-H1793; first compound 0.04 µM) was 0.622 and the relative viability (NCI-H1793; first compound 0.1265 µM) was 0.706. It also gave a relative viability (NCI-H1793; first compound 0.4 µM) of 0.805, a relative viability (NCI-H1793; first compound 1.265 µM) of 0.754 and a relative viability (EMC-BAC-2; first compound 0.04 µM) of 0.739. It also gave a relative viability (EMC-BAC-2; first compound 0.1265 µM) of 0.782, a relative viability (EMC-BAC-2; first compound 0.4 µM) of 0.719 and a relative viability (EMC-BAC-2; first compound 1.265 µM) of 0.713. The relative viability (NCI-H1734; first compound 0.04 µM) was 0.74, the relative viability (NCI-H1734; first compound 0.1265 µM) was 0.683 and the relative viability (NCI-H1734; first compound 0.4 µM) was 0.598. For the same compound, the relative viability (NCI-H1734; first compound 1.265 µM) was 0.664, the relative viability (NCI-H2009; first compound 0.04 µM) was 1.17 and the relative viability (NCI-H2009; first compound 0.1265 µM) was 1.16. For the same compound, the relative viability (NCI-H2009; first compound 0.4 µM) was 1.09, the relative viability (NCI-H2009; first compound 1.265 µM) was 0.955 and the relative viability (HCC-78; first compound 0.04 µM) was 0.397. It also gave a relative viability (HCC-78; first compound 0.1265 µM) of 0.361, a relative viability (HCC-78; first compound 0.4 µM) of 0.456 and a relative viability (HCC-78; first compound 1.265 µM) of 0.321. For the same compound, the relative viability (NCI-H2126; first compound 0.04 µM) was 0.787, the relative viability (NCI-H2126; first compound 0.1265 µM) was 0.76 and the relative viability (NCI-H2126; first compound 0.4 µM) was 0.696. The relative viability (NCI-H2126; first compound 1.265 µM) was 0.629, the relative viability (NCI-H2405; first compound 0.04 µM) was 0.925 and the relative viability (NCI-H2405; first compound 0.1265 µM) was 0.746. The relative viability (NCI-H2405; first compound 0.4 µM) was 0.796, the relative viability (NCI-H2405; first compound 1.265 µM) was 0.591 and the relative viability (SK-LU-1; first compound 0.04 µM) was 0.901. For the same compound, the relative viability (SK-LU-1; first compound 0.1265 µM) was 1.06, the relative viability (SK-LU-1; first compound 0.4 µM) was 0.817 and the relative viability (SK-LU-1; first compound 1.265 µM) was 0.548. The relative viability (ABC-1; first compound 0.04 µM) was 0.831, the relative viability (ABC-1; first compound 0.1265 µM) was 1.09 and the relative viability (ABC-1; first compound 0.4 µM) was 1.24. For the same compound, the relative viability (ABC-1; first compound 1.265 µM) was 1.2, the relative viability (COR-L23; first compound 0.04 µM) was 0.79 and the relative viability (COR-L23; first compound 0.1265 µM) was 0.745. It also gave a relative viability (COR-L23; first compound 0.4 µM) of 0.742, a relative viability (COR-L23; first compound 1.265 µM) of 0.61 and a relative viability (UMC-11; first compound 0.04 µM) of 0.938. For the same compound, the relative viability (UMC-11; first compound 0.1265 µM) was 1.06, the relative viability (UMC-11; first compound 0.4 µM) was 1.02 and the relative viability (UMC-11; first compound 1.265 µM) was 0.929. For the same compound, the relative viability (NCI-H2023; first compound 0.04 µM) was 0.629, the relative viability (NCI-H2023; first compound 0.1265 µM) was 0.65 and the relative viability (NCI-H2023; first compound 0.4 µM) was 0.583. It also gave a relative viability (NCI-H2023; first compound 1.265 µM) of 0.529, a relative viability (NCI-H838; first compound 0.04 µM) of 1.08 and a relative viability (NCI-H838; first compound 0.1265 µM) of 1.13. It also gave a relative viability (NCI-H838; first compound 0.4 µM) of 1.11, a relative viability (NCI-H838; first compound 1.265 µM) of 1.02 and a relative viability (LC-2-ad; first compound 0.04 µM) of 0.86. The relative viability (LC-2-ad; first compound 0.1265 µM) was 0.906, the relative viability (LC-2-ad; first compound 0.4 µM) was 0.827 and the relative viability (LC-2-ad; first compound 1.265 µM) was 0.573. It also gave a relative viability (HCC-15; first compound 0.04 µM) of 0.956, a relative viability (HCC-15; first compound 0.1265 µM) of 0.837 and a relative viability (HCC-15; first compound 0.4 µM) of 0.849. The relative viability (HCC-15; first compound 1.265 µM) was 0.49, the relative viability (HARA; first compound 0.04 µM) was 0.775 and the relative viability (HARA; first compound 0.1265 µM) was 0.988. It also gave a relative viability (HARA; first compound 0.4 µM) of 0.812, a relative viability (HARA; first compound 1.265 µM) of 0.707 and a relative viability (A-427; first compound 0.04 µM) of 1.03. It also gave a relative viability (A-427; first compound 0.1265 µM) of 1.13, a relative viability (A-427; first compound 0.4 µM) of 1.06 and a relative viability (A-427; first compound 1.265 µM) of 0.93.
